# Key:
# Assay type in all cases: in vivo
# [1] = system: healthy human female subjects; test: serum β17-estradiol (E2) concentration during 42-day once-daily treatment
# Description: To assess the effects of compound (II) on serum β17-estradiol concentration and menstrual blood loss, a total of 75 healthy human female subjects were divided into five treatment groups, as described in Table 1, below. The subjects were screened for a period of four weeks prior to the commencement of treatment with compound (II). At the conclusion of the four week screening period, the subjects in each treatment arm were administered an equivalent dosage of norethindrone acetate of 5 mg×3 times daily. This 15 mg/day dosage was administered for a total of 11 days so as to allow synchronization of menses among the subjects. The subjects were subsequently not treated for the ensuing 4 days. Following this withdrawal period, the subjects were treated with compound (II), with or without add-back therapy, once daily for 42 days according to the dosages set forth in Table 1. Following the 42-day treatment cycle, the subjects were further monitored for a period of 13 days. As used herein, the add-back regime of 1.0 mg/day β17-estradiol and 0.5 mg/day norethindrone acetate is referred to as the “high-dose” or […] add-back dosage, while the add-back regime of 0.5 mg/day β17-estradiol and 0.1 mg/day norethindrone acetate was referred to as the “low-dose” or “LD” add-back dosage. This labeling convention is used throughout this Example and is additionally referred to in the Figures.
# [2] = system: healthy human female subjects; test: menstrual bleeding pattern (amenorrhea) during treatment; details: for Amenorrhea (no bleeding), subjects / Amenorrhea + spotting only, subjects: last 4 weeks of treatment
# Description: To assess the effects of compound (II) on serum β17-estradiol concentration and menstrual blood loss, a total of 75 healthy human female subjects were divided into five treatment groups, as described in Table 1, below. The subjects were screened for a period of four weeks prior to the commencement of treatment with compound (II). At the conclusion of the four week screening period, the subjects in each treatment arm were administered an equivalent dosage of norethindrone acetate of 5 mg×3 times daily. This 15 mg/day dosage was administered for a total of 11 days so as to allow synchronization of menses among the subjects. The subjects were subsequently not treated for the ensuing 4 days. Following this withdrawal period, the subjects were treated with compound (II), with or without add-back therapy, once daily for 42 days according to the dosages set forth in Table 1. Following the 42-day treatment cycle, the subjects were further monitored for a period of 13 days. To assess the effects of compound (II) on menstrual blood loss, the volume of menstrual blood lost by each subject was evaluated over the course of the entirety of the study, including the 11-day screening period, 4-day withdrawal period, 42-treatment period, and 13-day post-treatment evaluation period. Assessment of menstrual blood loss was conducted using an electronic diary method, as subjects recorded daily whether their bleeding for each day was heavy, moderate, or light spotting.
# [3] = system: healthy human female subjects; test: biomarkers of bone mineral density (creatinine-normalized deoxypyridinoline); details: 100 mg/day + 1.0 mg/day E2 and 0.5 mg/day norethindrone acetate, urine (FIG. 25)
# Description: To assess the effects of compound (II) on serum β17-estradiol concentration and menstrual blood loss, a total of 75 healthy human female subjects were divided into five treatment groups, as described in Table 1, below. The subjects were screened for a period of four weeks prior to the commencement of treatment with compound (II). At the conclusion of the four week screening period, the subjects in each treatment arm were administered an equivalent dosage of norethindrone acetate of 5 mg×3 times daily. This 15 mg/day dosage was administered for a total of 11 days so as to allow synchronization of menses among the subjects. The subjects were subsequently not treated for the ensuing 4 days. Following this withdrawal period, the subjects were treated with compound (II), with or without add-back therapy, once daily for 42 days according to the dosages set forth in Table 1. Following the 42-day treatment cycle, the subjects were further monitored for a period of 13 days. In addition to assessing the ability of compound (II) to modulate serum E2 and progesterone levels and to curtail menstrual bleeding, compound (II) was evaluated for its effects on biomarkers of bone mineral density (FIGS. 25-29). These markers include creatinine-normalized deoxypyridinoline (DPD), which is excreted in larger quantities when bone resorption is increased.
# [4] = 100 mg daily + add-back E2/NETA 0.5 mg/0.1 mg
# [5] = 100 mg daily + add-back E2/NETA 0.5 mg/0.1 mg, listed as compound (II)
# [6] = 100 mg daily + add-back E2/NETA 1 mg/0.5 mg
# [7] = 100 mg daily + add-back E2/NETA 1 mg/0.5 mg, listed as compound (II)
# [8] = 100 mg daily, no add-back, listed as compound (II)
# [9] = 200 mg daily + add-back E2/NETA 1 mg/0.5 mg
# [10] = 200 mg daily + add-back E2/NETA 1 mg/0.5 mg, listed as compound (II)
# [11] = 200 mg daily, no add-back, listed as compound (II)
structure (smiles),measurement,setting,value
"COc1cc(F)c(-n2c(=O)[nH]c3csc(C(=O)O)c3c2=O)cc1OCc1c(OC)ccc(F)c1F [Compound (II), choline 3-[2-fluoro-5-(2,3-difluoro-6-methoxybenzyloxy)-4-methoxyphenyl]-2,4-dioxo-1,2,3,4-tetrahydrothieno [3,4d]pyrimidine-5-carboxylate]","Median E2 level, E2 Week 1","[1]; 100 mg daily + add-back E2/NETA 0.5 mg/0.1 mg, n = 14, after week 1",25 pg/mL
same,"Median E2 level, E2 Week 6","[1]; 100 mg daily + add-back E2/NETA 0.5 mg/0.1 mg, n = 14, after week 6",40 pg/mL
same,"Median E2 level, E2 Week 1","[1]; 100 mg daily + add-back E2/NETA 1 mg/0.5 mg, n = 15, after week 1",35 pg/mL
same,"Median E2 level, E2 Week 6","[1]; 100 mg daily + add-back E2/NETA 1 mg/0.5 mg, n = 15, after week 6",34 pg/mL
same,"Median E2 level, E2 Week 1","[1]; 100 mg daily, no add-back, n = 14, after week 1",12 pg/mL
same,"Median E2 level, E2 Week 6","[1]; 100 mg daily, no add-back, n = 14, after week 6",18 pg/mL
same,"E2 levels, majority of subjects","[1]; 100 mg/day without add-back, each of days 8, 15 and 22",less than 20 μg/ml
same,"Median E2 level, E2 Week 1","[1]; 200 mg daily + add-back E2/NETA 1 mg/0.5 mg, n = 15, after week 1",27 pg/mL
same,"Median E2 level, E2 Week 6","[1]; 200 mg daily + add-back E2/NETA 1 mg/0.5 mg, n = 15, after week 6",25 pg/mL
same,"Median E2 level, E2 Week 1","[1]; 200 mg daily, no add-back, n = 14, after week 1",5 pg/mL
same,"Median E2 level, E2 Week 6","[1]; 200 mg daily, no add-back, n = 14, after week 6",3 pg/mL
same,"serum E2 concentrations, all subjects","[1]; 200 mg/day stand-alone arm, each of days 8, 15, 22, 29 and 36",less than 20 μg/ml
same,effect on median serum E2 levels,"[1]; 100 or 200 mg/day, 42-day treatment cycle (FIG. 1)",reduced in a dose-dependent manner
same,"Amenorrhea (no bleeding), subjects",[2]; [4],21%
same,"Amenorrhea + spotting only, subjects",[2]; [4],57%
same,"Amenorrhea (no bleeding), subjects",[2]; [5],at least 21%
same,"Amenorrhea + spotting only, subjects",[2]; [5],at least 57%
same,"Amenorrhea (no bleeding), subjects",[2]; [6],53%
same,"Amenorrhea + spotting only, subjects",[2]; [6],93%
same,"Amenorrhea (no bleeding), subjects",[2]; [7],at least 53%
same,"Amenorrhea + spotting only, subjects",[2]; [7],at least 93%
same,"Amenorrhea (no bleeding), subjects","[2]; 100 mg daily, no add-back",86%
same,"Amenorrhea + spotting only, subjects","[2]; 100 mg daily, no add-back",93%
same,"Amenorrhea (no bleeding), subjects",[2]; [8],at least 86%
same,"Amenorrhea + spotting only, subjects",[2]; [8],at least 93%
same,"Amenorrhea (no bleeding), subjects",[2]; [9],33%
same,"Amenorrhea + spotting only, subjects",[2]; [9],60%
same,"Amenorrhea (no bleeding), subjects",[2]; [10],at least 33%
same,"Amenorrhea + spotting only, subjects",[2]; [10],at least 60%
same,"Amenorrhea (no bleeding), subjects","[2]; 200 mg daily, no add-back",87%
same,"Amenorrhea + spotting only, subjects","[2]; 200 mg daily, no add-back",100%
same,"Amenorrhea (no bleeding), subjects",[2]; [11],at least 87%
same,"Amenorrhea + spotting only, subjects",[2]; [11],100%
same,effect on menstrual bleeding,[2]; 100 or 200 mg/day with or without add-back (FIGS. 20-24),capable of inducing sustained amenorrhea
same,"creatinine-normalized deoxypyridinoline (DPD), comparison among arms",[3],smallest increase
